In PMC8012719 (Frontiers in Pharmacology, 2021):
≈ marks a conversion by molar mass, not a printed value. Where “and” joins values, the source holds several entries; their conditions need not be identical. Equal values may be shown once. Where a name gives a salt, the structure may show the parent alone. Read-outs that look alike come from different tables or passages of the source.

What was measured:
[1] = system: pRABV (pseudovirus enveloped by the RABV glycoprotein G); assay: microbe, parasite or virus in culture; format: cell-based, rabies virus; details: for EC50: read-out: pRABV EC50
[2] = system: pVSV (pseudovirus expressing a vesicular stomatitis virus envelope glycoprotein); assay: microbe, parasite or virus in culture; format: cell-based; details: for EC50: read-out: pVSV EC50
RABV CVS strain [3] = assay: microbe, parasite or virus in culture; format: cell-based, rabies virus; details: for EC50: read-out: CVS EC50
in vitro [4] = details: human
Rabies virus CVS strain = details: mouse, in vivo
RABV [5] = assay: microbe, parasite or virus in culture; format: cell-based; details: Lyssavirus rabies, in Felis catus
in vitro [6] = details: cat
RABV [7] = molecular target: RABV; design: species or system rabies virus; details: read-out: binding affinity (KD)
RABV CVS strain [8] = format: cell-based, rabies virus
in vitro [9] = details: hamster
RABV [10] = details: cited from earlier work
RABV vaccine strain = details: cited from earlier work
rabies infection = details: mouse, in vivo; cited from earlier work

In the case of `CCOC(=O)C1=C(COCCN)NC(C)=C(C(=O)OC)C1c1ccccc1Cl` (stereo not drawn) [Amlodipine besylate], the “SI pRABV” value [1] is reported as 26.8, the EC50 ([1]; Pseudovirus, HEK-293T, 48 h) is reported as 1.4 µM and the EC50pVSV/EC50pRABV [2] is reported as 19.4. The EC50 ([2]; Pseudovirus, HEK-293T) was 26.4 µM, the SICVS (RABV CVS strain [3]) was 1.0 and the EC50 (RABV CVS strain [3]; Lyssavirus rabies, 24 h) was 37.4 µM. The CC50 (in vitro [4]) was 36.3 µM.

In the case of `CCOC(=O)C1=C(COCCN)NC(C)=C(C(=O)OC)C1c1ccccc1Cl` (stereo not drawn) [Amlodipine maleate], the “SI pRABV” value [1] is reported as 17.9, the EC50 [1] is reported as 1.9 µM and the EC50pVSV/EC50pRABV [2] is reported as 13.3. The EC50 [2] was 25.8 µM, the SICVS (RABV CVS strain [3]) was 0.9 and the EC50 (RABV CVS strain [3]) was 37.8 µM. For the same molecule, the CC50 (293T cells) was 34.9 µM.

For `CCN(CC)Cc1cc(Nc2ccnc3cc(Cl)ccc23)ccc1O` [Amodiaquine hydrochloride], the “SI pRABV” value [1] was 20.3, the EC50 ([1]; Pseudovirus, HEK-293T, 48 h) was 4.2 µM and the EC50pVSV/EC50pRABV [2] was 5.8. The EC50 ([2]; Pseudovirus, HEK-293T) was 24.3 µM, the SICVS (RABV CVS strain [3]) was 5.7 and the EC50 (RABV CVS strain [3]; Lyssavirus rabies, 24 h) was 14.8 µM. For the same molecule, the CC50 (in vitro [4]) was 84.9 µM.

In the case of `CC(C)N=c1cc2n(-c3ccc(Cl)cc3)c3ccccc3nc-2cc1Nc1ccc(Cl)cc1` [CFZA, Clofazimine aspirin salt], the EC50 (RABV CVS strain [3]) is reported as 1.2 µM and the “survival rate at 14 dpi” value (Rabies virus CVS strain) is reported as 25%.

For `CC(C)N=c1cc2n(-c3ccc(Cl)cc3)c3ccccc3nc-2cc1Nc1ccc(Cl)cc1` [CFZG, Clofazimine gallic acid salt], the EC50 (RABV CVS strain [3]) was 2.07 µM, the “percentage of sick mice at five dpi” value (Rabies virus CVS strain) was 40% and the “survival rate compared with the control” value (Rabies virus CVS strain) was “no improvement on the survival rate”.

In the case of `CC(C)N=c1cc2n(-c3ccc(Cl)cc3)c3ccccc3nc-2cc1Nc1ccc(Cl)cc1` [CFZH, Clofazimine hydrochloride salt], the EC50 (RABV CVS strain [3]) is reported as 1.2 µM and the “survival rate compared with the control” value (Rabies virus CVS strain) is reported as “no improvement on the survival rate”.

In the case of `CC(C)N=c1cc2n(-c3ccc(Cl)cc3)c3ccccc3nc-2cc1Nc1ccc(Cl)cc1` [CFZM, Clofazimine methanesulfonate], the EC50 (RABV CVS strain [3]) is reported as 2.5 µM and the “survival rate compared with the control” value (Rabies virus CVS strain) is reported as “no improvement on the survival rate”.

In the case of `CC(C)N=c1cc2n(-c3ccc(Cl)cc3)c3ccccc3nc-2cc1Nc1ccc(Cl)cc1` [CFZS, Clofazimine salicylates], the EC50 (RABV CVS strain [3]) is reported as 1.2 µM, the EC50 (RABV [5]) is reported as 4.71 µM and the “percentage of sick mice at five dpi” value (Rabies virus CVS strain) is reported as 40%. For the same molecule, the “survival at 14 dpi” value (Rabies virus CVS strain) was 50% and 40%, the “survival rate at 14 dpi” value (Rabies virus CVS strain) was 30% and the “redness in the skin” value (Rabies virus CVS strain; po) was “No redness in the skin”. The CC50 (in vitro [6]) was 670 µM.

With `N.N.[Cl][Pt][Cl]` [Cisplatin] the “SI pRABV” value [1] was >5.1, the EC50 [1] was 39.1 µM and the EC50pVSV/EC50pRABV [2] was >5.1. The EC50 [2] was > 200 µM, the SICVS (RABV CVS strain [3]) was >3.0 and the EC50 (RABV CVS strain [3]) was 67 µM. For the same molecule, the CC50 (293T cells) was > 200 µM.

In the case of `CC(C)/N=c1\cc2n(-c3ccc(Cl)cc3)c3ccccc3nc-2cc1Nc1ccc(Cl)cc1` [Clofazimine], the EC50 ([1]; Pseudovirus, HEK-293T, 48 h) is reported as 1.7 µM, the EC50 ([2]; Pseudovirus, HEK-293T) is reported as 10.5 µM and the “concentrations inhibiting RABV” value (RABV CVS strain [3]) is reported as 2 to 33 µM. It also gave an EC50 (RABV CVS strain [3]; Lyssavirus rabies, 24 h) of 2.28 µM, an EC50 (RABV CVS strain [3]) of 2.28 µM and a Kd (RABV [7]) of 4.32 µM. The “inhibitory effect on RABV infection” value (RABV CVS strain [8]) was “strong inhibitory effect”, the “suppression of fluorescence activity (RABV infection)” value (RABV CVS strain [8]) was “no suppression of fluorescence activity” and the EC50 (RABV [5]) was 4.24 µM. For the same molecule, the “antiviral efficacy (survival)” value (Rabies virus CVS strain) was “did not show any antiviral efficacy”, the “percentage of sick mice at five dpi” value (Rabies virus CVS strain) was 50% and the “survival at 14 dpi” value (Rabies virus CVS strain) was 30%. For the same molecule, the “survival rate at 14 dpi” value (Rabies virus CVS strain) was 10%, the CC50 (in vitro [4]) was > 200 µM and the CC50 (in vitro [9]) was > 2200 µM. The solubility (physchem) was 0.29 µg/mL (≈ 0.613 µM) and the CC50 (in vitro [6]) was 144 µM.

With `CC(CN1c2ccccc2S(=O)(=O)c2ccccc21)N(C)C.Cl` (stereo not drawn) [Dioxopromethazine hydrochloride] the “SI pRABV” value [1] was >5.5, the EC50 [1] was 36.7 µM and the EC50pVSV/EC50pRABV [2] was >5.5. The EC50 [2] was > 200 µM, the SICVS (RABV CVS strain [3]) was >3.0 and the EC50 (RABV CVS strain [3]) was 67 µM. The CC50 (293T cells) was > 200 µM.

For `CCc1c2c(nc3ccc(OC(=O)N4CCC(N5CCCCC5)CC4)cc13)-c1cc3c(c(=O)n1C2)COC(=O)[C@]3(O)CC.Cl` [Irinotecan hydrochloride], the “SI pRABV” value [1] was >5.9, the EC50 [1] was 33.6 µM and the EC50pVSV/EC50pRABV [2] was >5.9. For the same molecule, the EC50 [2] was > 200 µM, the SICVS (RABV CVS strain [3]) was 1.2 and the EC50 (RABV CVS strain [3]) was 67 µM. For the same molecule, the CC50 (293T cells) was > 200 µM.

In the case of `CNC1(c2ccccc2Cl)CCCCC1=O` (stereo not drawn) [Ketamine], the “concentrations inhibiting RABV replication” value (RABV [10]) is listed as 1 to 2 mM.

With `CN1CCC(=C2c3ccccc3CC(=O)c3sccc32)CC1` [Ketotifen fumarate] the “SI pRABV” value [1] was >18, the EC50 ([1]; Pseudovirus, HEK-293T, 48 h) was 10.8 µM and the EC50pVSV/EC50pRABV [2] was 8.1. For the same molecule, the EC50 ([2]; Pseudovirus, HEK-293T) was 87.8 µM, the SICVS (RABV CVS strain [3]) was >3.0 and the EC50 (RABV CVS strain [3]; Lyssavirus rabies, 24 h) was 67 µM. For the same molecule, the CC50 (in vitro [4]) was > 200 µM.

For `CNCCCC12CCC(c3ccccc31)c1ccccc12` [Maprotiline hydrochloride], the SICVS (RABV CVS strain [3]) was >4.5 and the CC50 (in vitro [4]) was 52 µM.

For `CN1CCC(=C2c3ccccc3CCc3sccc32)CC1` [Pizotifen], the “SI pRABV” value [1] was 32.3, the EC50 ([1]; Pseudovirus, HEK-293T, 48 h) was 3.1 µM and the EC50pVSV/EC50pRABV [2] was 8.2. It also gave an EC50 ([2]; Pseudovirus, HEK-293T) of 25.7 µM, an SICVS (RABV CVS strain [3]) of 1.5 and an EC50 (RABV CVS strain [3]; Lyssavirus rabies, 24 h) of 67 µM. It also gave a CC50 (in vitro [4]) of 100 µM.

For `NC(=O)c1nc(F)cnc1O` [T-705, 6-fluoro-3-hydroxy-2-pyrazinecarboxamide], the “survival at 14 dpi” value (Rabies virus CVS strain; po, 300 mg/kg/day) is listed as 40%, the EC50 (RABV vaccine strain) is listed as 32.4 µM and the “viral replication in the CNS” value (rabies infection) is listed as “suppress viral replication in the CNS”.

For `CCCCNc1ccc(C(=O)OCCN(C)C)cc1` [Tetracaine hydrochloride], the “SI pRABV” value [1] was >3, the EC50 ([1]; Pseudovirus, HEK-293T, 48 h) was 65.8 µM and the EC50pVSV/EC50pRABV [2] was >3. The EC50 ([2]; Pseudovirus, HEK-293T) was > 200 µM, the SICVS (RABV CVS strain [3]) was >3.0 and the EC50 (RABV CVS strain [3]; Lyssavirus rabies, 24 h) was 67 µM. For the same molecule, the CC50 (in vitro [4]) was > 200 µM.
